Assay results from patent US9730945B2, “Diagnosis of autism spectrum disorders and its treatment with an antagonist or inhibitor of the 5-HT2c receptor signaling pathway” (Massachusetts Institute of Technology, priority 2009, dated 2017).
“Also recorded” adds a separate entry of the source.

Test system: Pten haploinsufficient mice
Experiment: Social approach behavior assay (three-chamber apparatus)
Type: in vivo
Details: female Pten haploinsufficient mice, 8 weeks of age, IP 0.3 mg/kg, 20 minutes prior to assay, quantified over 10 minutes, preliminary test
Protocol: FIG. 5: Effects of the 5-HT2cR antagonist SB 242084 on social approach behavior in Pten haploinsufficient mice. The mice tested were female littermates, 8 weeks of age. The mice were given an IP injection of 0.3 mg/kg of SB 242084 or vehicle, 20 minutes prior to start of the assay. A social stimulus mouse was placed in chamber 1 and an identical empty cage was placed in chamber 3. The percent time the subject mouse spent interacting with the stimulus mouse was quantified over 10 minutes. […] For vehicle treated groups, n=6; for SB 242084-treated groups, n=8. * P<0.05, ANOVA within group comparison between chamber 1 and chamber 3. In each group of bars, the order is: left bar=chamber 1, middle bar=chamber 2, right bar=chamber 3.
A mouse was placed in an open top acrylic box (24″L×12″W×12″H) with opaque walls. The box was divided into three (8″L×12″W) chambers separated by opaque acrylic panels with holes providing passage between chambers. For reference, the chambers were numbered, from left to right 1, 2, and 3. […] The resulting video was scored with computer assistance by importing into ImageJ software (http://rsb.info.nih.gov/ij/), where each chamber was defined as a region of interest using a script written in-house, and the number of frames in which the mouse was in each region of interest was quantified. […]

SMILES: Cc1cc2c(cc1Cl)N(C(=O)Nc1ccc(Oc3cccnc3C)nc1)CC2 [SB 242084, 6-Chloro-5-methyl-1-[[2-(2-methylpyrid-3-yloxy)pyrid-5-yl]carbamoyl]indoline]
- social approach behavior (percent time interacting with stimulus mouse, chamber 1 vs chamber 3): can offset deficits in social approach behavior; also recorded: significant preference for interacting with the stimulus mouse
